Data from article PMC10611796, “The α-synuclein PET tracer [18F] ACI-12589 distinguishes multiple system atrophy from other neurodegenerative diseases” (Nature Communications, 2023).

Biological target: T1, α-synuclein (Homo sapiens, UniProt P37840)
T1 construct: gene SNCA; pathological α-syn aggregates in post-mortem human brain tissue
Test: radioligand saturation binding (autoradiography and radiobinding) on human brain tissue; displacement by unlabeled ACI-12589; micro-autoradiography

Substance: ACI-12589
- Kd: 33.5 ± 17.4 nM
